Assay results reported in patent publication US20180369111A1, “COMPOSITION COMPRISING BAICALIN AT A HIGH CONCENTRATION” (L'OREAL, priority 2015, published 2018).

Assay: Solubility and chemical stability of baicalin in aqueous medium as a function of pH
Type: physicochemical
From the text: Baicalin is a polyphenol displaying an antioxidant activity. There is thus a need, for consumers, to provide cosmetic compositions comprising baicalin, or an extract containing same, at a high concentration and having a greater antioxidant efficacy than the cosmetic compositions known in the prior art comprising baicalin. However, the solubility of baicalin is very low in aqueous medium. It is therefore very difficult to incorporate in a composition, in particular a cosmetic composition, at a high mass concentration, in particular at a mass concentration greater than 0.2%. At a mass concentration greater than 0.2%, the appearance of the presence of crystallized baicalin is observed. The present inventors have identified that the solubility of baicalin was increased with the pH.
In particular, the method implemented to incorporate baicalin, or an extract containing same, at a high mass concentration, i.e. for example greater than 0.5% in the aqueous phase of a composition consists, in a first transitory step, of completely dissolving the baicalin in aqueous phase in a basic medium using a base to raise the pH to a value greater than 6. Under these conditions, it is possible to prepare aqueous solutions comprising up to 10% baicalin as a mass concentration, without using hydrotropic agents.
Baicalin is presented in the form of a yellow powder, having a purity optionally greater than 90 or 95%. Baicalin crystals may be presented in the form of needles.

In the case of `O=C(O)[C@H]1O[C@@H](Oc2cc3oc(-c4ccccc4)cc(=O)c3c(O)c2O)[C@H](O)[C@@H](O)[C@@H]1O` [Baicalin], the “baicalin mass concentration attainable in aqueous solution” value is reported as “up to 10%”, the “chemical stability of baicalin” value (at a pH greater than 6) is reported as “chemically unstable and is degraded” and the “mass concentration above which crystallized baicalin appears” value (in a composition, mass concentration) is reported as “greater than 0.2%”.
